Test results reported in patent US20180317484A1 (priority 2017, published 2018).

Test system: Aspergillus flavus
Test: microbe, parasite or virus in culture
Type: cell-based

SMILES | effect on growth of the fungi, in words | inhibition at 50 µg/mL (Aspergillus flavus, 168 h, read-out: percentage of inhibition of growth of the fungi (Aspergillus flavus)) [%]
NC(=NO)c1ccc2nc(-c3ccco3)[nH]c2c1 [6-AFBD, 2-(2-Furyl) benzimidazole-6-carboxamidoxime] | does not inhibit the growth | –
O=C(O)c1ccc2nc(-c3ccco3)[nH]c2c1 [6-CAFBD, 2-(2-Furyl) benzimidazole-6-carboxylic acid] | does not inhibit the growth | –
O=[N+]([O-])c1ccc2nc(-c3ccco3)[nH]c2c1 [6-NFBD, 2-(2-Furyl)-6-nitrobenzimidazole] | does not inhibit the growth | –
c1coc(-c2nc3ccccc3[nH]2)c1 [FBD, 2-(2-Furyl)benzimidazole] | – | 100
